Eight compounds from paper PMC9418147, “Identification and structure-based drug design of cell-active inhibitors of interleukin 17A at a novel C-terminal site” (Scientific Reports, 2022) can be followed below.

Values joined by “and” are separate entries in the source; they are usually repeats but may differ in a detail not shown here. Identical values can stand only once. “Also recorded” adds a separate entry of the source. Like-named read-outs stand apart in the source and are kept apart here.

Assay [1] concerns the target T1, IL17A (Homo sapiens, UniProt Q16552).
T1 construct: Biotinylated Avi-tag IL17A-(24–155) was produced by enzymatic biotinylation; 6His-MBP (N, cleaved yes); made in house; host or cells: Escherichia coli Shuffle T7 express (NEB)
The assay can be described thus: Compound binding to IL17A via surface plasmon resonance (SPR). To be noted: for Kd: binding to IL17A. How it is done: Compounds were assayed via Surface Plasmon Resonance (SPR) using Biacore T200 instrument and Biacore 4000 [Formerly GE Healthcare (now Cytiva Life Sciences)]. […] Sensorgrams were processed (including solvent correction) and analyzed using Biacore T200 and Biacore 4000 evaluation software. The binding curves were fit to determine the equilibrium dissociation constant (KD) and kinetic constants (kon and koff).
Supplemental Figure 2: Measurement for binding of IL17A inhibitors by Surface Plasmon Resonance (SPR).
(In general: In SPR one partner is held on a chip, and binding of the other changes the refractive index at the surface.)

Assay [2] has as its target T2, IL17A-IL17RA-Fc complex (Homo sapiens, UniProt Q16552).
T2 construct: purchased R&D Systems
In words: IL17A-IL17RA-Fc AlphaLISA assay. It is filed as biochemical. How it is done:
(§1) AlphaLISA technology was used to understand the ability of compounds to inhibit IL17A binding to IL17 receptor (IL17RA). Compounds of interest were diluted in 100% DMSO and plated in a 384 well white proxiplate (Perkin Elmer) using Echo Acoustic Liquid Handler (LabCyte Sunnydale, CA). To the compound plate, 4 µL of biotinylated IL17A (R&D systems) and 2 µL of IL17RA-Fc (R&D Systems) was added, to provide a final concentration of 1 nM of IL17RA-Fc and IL17A, respectively. The assay was carried out in 100 mM Tris, 0.01% Tween-20, 0.1% BSA, pH 8.0. The assay mixture was allowed to incubate at room temperature for 60 min, after which, 2 µL of protein A AlphaLISA acceptor beads (#AL101M, PerkinElmer) was added to a final concentration of 7.5 µg/mL for 60 min. To the plate, 2 µL of streptavidin donor beads (#6,760,002, PerkinElmer) was added to a final concentration of 7.5 µg/mL. The plate was allowed to incubate for one hour at room temperature, then loaded into the Envision multimode plate reader (Perkin Elmer). AlphaLISA TruHits Kits (#AL900D, PerkinElmer) were used to assess potential false positives. All inhibition experiments were normalized against DMSO control containing no inhibitor. Example raw data are shown in Supplementary Fig. 10A.
(In general: In Alpha technology, singlet oxygen from a donor bead excites a nearby acceptor bead.)

Assay [3] deals with IL17A/TNF stimulated HeLa cells carrying an LCN2 promoter-driven luciferase reporter. The assay can be described thus: IL17A/TNF stimulated HeLa-LCN2 luciferase reporter cells. Format: cell-based. To be noted: for IC50: Homo sapiens, HeLa LCN2 luciferase reporter, IL17A and TNF, read-out: IL17A/TNF stimulated cell IC50. How it is done:
(§2) The promoter of the IL17 target gene lipocalin 2 (LCN2) inserted into pGL4-luciferase vector (pGL4[luc2P/LCN2/Hygro], obtained from Promega) was used to generate a stable clone in HeLa cells (ATCC) using hygromycin. In response to IL17 stimulation the increase in LCN2-luciferase gene transcription can be monitored using the luciferase reporter assay as described below. The reporter cells (HeLa-LCN2) were cultured in Dulbecco's modified Eagle's medium supplemented with 10% (v/v) fetal bovine serum, 0.2 mg/mL hygromycin, and 1% penicillin and streptomycin. Cells were maintained at 37 °C in a humidified atmosphere of 5% CO2. The assay media contained Dulbecco's modified Eagle's medium supplemented with 0.5% Charcoal-stripped FBS and 1% penicillin and streptomycin. About 7500 cells per well were plated in 40 ul assay media in a 384-well black plate (Grenier, #781,090) for 16 h. Then cells were stimulated with IL17A (10 ng/mL) and TNF (20 ng/mL) for 6 h at 37 °C and 5% CO2. The supernatant was removed and 25 µL of One-Glo reagent (#E6110, Promega) was added to the wells and luminescence was measured using Envision multimode plate reader. Background signal was measured using the same protocol by stimulating cells with TNF (20 ng/mL) in the absence of IL17A. All inhibition experiments were normalized against DMSO control containing no inhibitor. Example raw data are shown in Supplementary Fig. 10B.
On the technique in general: In a reporter assay the amount or activity of a reporter protein is the signal.

Assay [4] deals with T3, IL17A (Homo sapiens, UniProt Q16552, C129S).
T3 construct: For crystallography, NMR and early SPR studies, IL17A (34–155)C129S; Trx-6His (N, cleaved yes); made in house; host or cells: Escherichia coli Shuffle T7 express (NEB)
In words: 2D NMR titration of compound binding to IL17A. How it is done: NMR spectra were acquired on either a Bruker 500 MHz AVANCE III spectrometer or a Bruker 600 MHz AVANCE III HD spectrometer, both with cryoprobes, on 60 µM protein samples in 20 mM deuterated TRIS buffer, pH 8.0, with 150 mM NaCl. For fragment screening, fragments were added from a concentrated DMSO stock to a concentration of 1 mM in the NMR tube. As described above, fragments were initially added as mixtures of 12 and those mixtures which induced significant changes in a 13C-HSQC spectrum of the protein were then deconvoluted to find the individual binders.

Assay [5] is described as follows: AlphaLISA TruHits counter screen for false positives. The following applies: AlphaLISA non-specific effects; read-out: TruHits counterscreen IC50. On the procedure: as §1
Assay [6] addresses T1, IL17A. The assay can be described thus: Fluorescence polarization competition assay with FP probe Cmpd 11. Format: binding. The following applies: for Competition for IL17A with FP probe: probe Cmpd 11. How it is done:
Fluorescence polarization (FP) assays were performed in black shallow 384-well micro plates (ProxiPlate – 384 F Plus, PerkinElmer) using Envision multimode plate reader (Perkin-Elmer). Polarization was measured by using an excitation filter of 485 nm and an emission filter of 535 nm. Each well was flashed 50 times, and the average values were used. Briefly, 5 µL of IL17A (20 nM) diluted in the assay buffer (50 mM Tris pH 8.0, 0.001% Tween) was added to compound containing wells and incubated for 60 min. To this, 5 µL of the FP probe (10 nM) was added and the reaction mixture was incubated for 120 min at room temperature prior to measuring FP. All inhibition experiments were normalized against DMSO control containing no inhibitor.

The test system of assay [7] is TNF-only stimulated HeLa reporter cells. In words: TNF-only stimulated HeLa-LCN2 luciferase reporter cells. It is filed as cell-based. To be noted: Homo sapiens, read-out: TNF-only stimulated cell IC50. On the procedure: as §2
Assay [8] has as its system T4, IL17A-IL17RA interactions.
T4 construct: IL17A WT (34–155)C129S and Truncated (34–148)C129S was injected; Trx-6His (N, cleaved yes); made in house; host or cells: Escherichia coli Shuffle T7 express (NEB) for IL17A
In words: SPR competition assay: IL17A +/- inhibitor over immobilized IL17RA. Format: binding. To be noted: IL17A +/- inhibitor injected over immobilized IL17RA. How it is done: (§3) To interrogate IL17A—IL17RA binding and the effect of compound binding to IL17A for interaction with IL17RA, Biotinylated Avi tag IL17RA was immobilized using CAP chip. IL17A WT protein with and without compounds was injected over the immobilized IL17RA surface. The surface was regenerated using mixture of 8 M Guanidine Hydrochloride and 1 M Sodium Hydroxide. To profile both IL17A WT and truncated-IL17A binding to IL17RA, Fc tag IL17RA (Sino Biological) was captured on immobilized anti-Fc (Human Fc from Pierce) surface. IL17A WT (34–155)C129S and Truncated (34–148)C129S was injected at flow rate of 80 µL/min for contact time of 180 s and dissociation was monitored for 1200 s. The surface was regenerated with 2 consecutive injections (60 s and 10 s at 60 µL/min) of 10 mM Glycine, pH 1.5.
Supplemental Figure 6: C-terminal binding site compounds can disrupt IL17A binding to its receptor in SPR competition assay. Biotinylated Avi-tagged IL17RA was captured on CAP chip; IL17A +/- inhibitor samples were injected over immobilized IL17RA . Cmpd 1 was used as the positive control. [picture]

In assay [9] the target is T1, IL17A. The assay can be described thus: Isothermal titration calorimetry with IL17A dimer. Format: binding. The following applies: reverse titration, 50 mM sodium phosphate pH 7.0; read-out: ITC affinity (KD). How it is done: Supplemental Figure 7: Isothermal titration calorimetry of Cmpd 10. Theoretical binding of 1 molecule to a IL17A dimer would result in N of 0.5. Observed stoichiometry was 0.7. 200 µM IL17A (dimer) used injected (reverse titration) to 20 µM Cmpd 10 in 50 mM sodium phosphate pH 7.0.

For assay [10], the target named is T5, IL17RA (Homo sapiens, UniProt Q96F46).
T5 construct: purchased Sino Biological
The assay can be described thus: SPR of IL17A WT and truncated IL17A binding to IL17RA. To be noted: IL17A construct binding to IL17RA. On the procedure:
as §3

[11] abbreviates: disruption of IL17A-IL17RA-Fc complex formation, read-out: IL17A/IL17RA-Fc AlphaLISA IC50.

As a reminder, the Kd is a measure of binding affinity in units of concentration.

T1 sequence (Q16552 24-155): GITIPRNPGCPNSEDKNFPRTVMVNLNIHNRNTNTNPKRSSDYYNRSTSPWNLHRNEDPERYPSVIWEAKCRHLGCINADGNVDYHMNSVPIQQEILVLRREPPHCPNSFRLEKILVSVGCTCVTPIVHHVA
T2 sequence (Q16552 24-155, one chain of several): as the sequence (Q16552 24-155) above
T3 sequence (Q16552 34-155 C129S): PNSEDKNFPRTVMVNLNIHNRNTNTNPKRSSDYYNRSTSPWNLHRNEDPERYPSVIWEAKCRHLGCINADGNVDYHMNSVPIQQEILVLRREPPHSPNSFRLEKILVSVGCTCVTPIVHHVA

Turning to `O=C1CC2(CCCC2)CC(=O)NC(Cc2ccc(NC(=O)C(Cc3ccccc3Cl)NC(=O)Cc3cccc(O)c3)cc2)C(=O)NCCOCCOCCN1` (stereo not drawn) [Cmpd 1, reference compound], the Kd in assay [1] is ~0.004 µM. Moreover, the “Binding efficiency index (BEI)” value in assay [1] (from SPR KD and molecular weight) is reported as 11–13. Besides, the “Potency in biochemical assays” value in assay [2] (positive control in biochemical assays) was “low nM potency”. Further, the “Concentration needed to block cellular signaling” value in assay [3] (positive control in cellular assays) is given as ~ 3 µM.
Consider `C/C=C/c1cccc2c(N)n[nH]c12` [Cmpd 4, (E)-7-(prop-1-en-1-yl)-1H-indazol-3-amine], for which the dissociation constant (Kd) in [1] was > 250 µM.
`c1ccc(CNc2cncc(-c3ccc4[nH]nc(NCCN5CCOCC5)c4c3)c2)cc1` [Cmpd 5, 5-(5-(benzylamino)pyridin-3-yl)-N-(2-morpholinoethyl)-1H-indazol-3-amine] had a Kd in assay [4] of 12 µM.
Regarding `Clc1ncc(NCc2ccccc2)cc1-c1cccc2ncccc12` [Cmpd 6, N-benzyl-6-chloro-5-(quinolin-5-yl)pyridin-3-amine], the Kd in assay [1] was ~70 µM and 72 µM.
Consider `O=C(COc1ccccc1CNc1cc(C(=O)O)cc(-c2ccnc3ccccc23)c1)NCCNC(=O)COc1ccccc1CNc1cc(C(=O)O)cc(-c2ccnc3ccccc23)c1` [Cmpd 8, 5,5'-((((((ethane-1,2-diylbis(azanediyl))bis(2-oxoethane-2,1-diyl))bis(oxy))-bis(2,1-phenylene))bis(methylene))bis(azanediyl))bis(3-(quinolin-4-yl)benzoic acid)], for which the dissociation constant Kd in assay [1] worked out at 0.37 µM. Also, the IC50 in [2] (setting [11]) was 3.6 µM and ~4 µM; in assay [5], ~54 µM; in [3], 4.7 µM; in [7], ~51 µM. Also, in assay [6], the “Competition for IL17A with FP probe” value is “full competition”. In addition, the “Disruption of IL17A-IL17RA interactions in SPR-based assay” value in [8] was “could block IL17A receptor interactions; also recorded: showed disruption of IL17A-IL17RA interactions”.
With `O=C(COc1ccccc1CNc1cc(C(=O)O)cc(-c2ccnc3ccccc23)c1)NCCOCCOc1ccccc1CNc1cc(C(=O)O)cc(-c2ccnc3ccccc23)c1` [Cmpd 9, 3-((2-(2-(2-(2-(2-(((3-carboxy-5-(quinolin-4-yl)phenyl)amino)methyl)-phenoxy)acetamido)ethoxy)ethoxy)-benzyl)amino)-5-(quinolin-4-yl)benzoic acid], the Kd in assay [1] was 0.21 µM and 0.209 µM. The IC50 in [2] (setting [11]) is 1.3 µM; in assay [5], ~57 µM; in assay [3] it was 5.7 µM; in assay [7] it was > 70 µM. The “Competition for IL17A with FP probe” value in assay [6] is listed as “full competition”.
On to `O=C(O)c1cc(NCc2ccccc2OCCOCCOCCOc2ccccc2CNc2cc(C(=O)O)cc(-c3ccnc4ccccc34)c2)cc(-c2ccnc3ccccc23)c1` [Cmpd 10], for which the dissociation constant (Kd) in assay [1] is 0.043 µM and < 0.1 µM; in [9], 0.044 µM. Besides, the IC50 in assay [2] (inhibition of IL17A/IL17RA-Fc interactions, read-out: IL17A/IL17RA-Fc IC50) was 0.74 µM; in assay [6] (unlabeled compound pre-bound to IL17A before addition of FP probe) it was 0.107 µM; in assay [3] it was 1.3 µM; in assay [7], > 50 µM.
As to “C-terminal deletion: IL17A construct (aa 34–148) lacking the final C-terminal residues (aa 149–155)”, the “Interaction with IL17RA by SPR” value in assay [10] is “did not productively interact with IL17RA”.
